{"source": "patent US20060233809A1", "about": "“Method for treating prostate conditions” (priority 2005, published 2006)", "key": {"[1]": {"system": "AR protein in RPE cells (BCRP-mediated transport)", "experiment": "Immunocytochemical analysis of nuclear-localized AR protein in RPE cells", "assay_type": "cell-based, rat", "details": "50 μmol/L novobiocin and/or 3 nmol/L dihydrotestosterone, 14 hours; immunocytochemistry, n>200 cells/group"}, "[2]": {"details": "limiting use in vivo; cited from earlier work"}, "BCRP [3]": {"target": "T1, BCRP (Rattus norvegicus, UniProt Q80W57)", "T1 construct": "the Mx-RPE cells have a higher level of BCRP activity than RPE cells; endogenous in cells; host or cells: Mx-RPE (mitoxantrone-resistant subline of rat RPE cells)", "T1 sequence (Q80W57 1-657)": "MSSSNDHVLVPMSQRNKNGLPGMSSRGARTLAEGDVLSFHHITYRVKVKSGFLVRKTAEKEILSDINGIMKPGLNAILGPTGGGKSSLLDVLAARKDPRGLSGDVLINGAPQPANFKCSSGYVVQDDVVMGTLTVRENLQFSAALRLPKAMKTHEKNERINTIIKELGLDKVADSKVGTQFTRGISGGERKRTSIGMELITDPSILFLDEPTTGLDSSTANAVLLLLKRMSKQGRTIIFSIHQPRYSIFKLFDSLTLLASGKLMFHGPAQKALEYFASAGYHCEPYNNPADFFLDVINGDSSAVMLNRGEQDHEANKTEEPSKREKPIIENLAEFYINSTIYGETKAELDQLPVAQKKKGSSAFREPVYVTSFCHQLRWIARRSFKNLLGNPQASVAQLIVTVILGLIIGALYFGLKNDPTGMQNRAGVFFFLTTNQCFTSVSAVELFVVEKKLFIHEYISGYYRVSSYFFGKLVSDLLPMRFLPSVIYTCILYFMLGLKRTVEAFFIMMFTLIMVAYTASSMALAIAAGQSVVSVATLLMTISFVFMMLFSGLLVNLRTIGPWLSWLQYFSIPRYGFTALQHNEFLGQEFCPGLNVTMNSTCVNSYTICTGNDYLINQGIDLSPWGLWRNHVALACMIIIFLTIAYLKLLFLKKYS", "assay_type": "cell-based", "details": "RPE cells", "source_text": "(§1) Data for Hoechst 33342 efflux represent two independent experiments (n>1,000 cells, *** P<0.0001).\n(§2) Additionally, novobiocin and fumitremorgin C were compared in RPE cells as inhibitors of BCRP-mediated efflux of Hoechst 33342, the marker utilized to identify the side population phenotype of stem cells. Fumitremorgin C is a specific inhibitor for BCRP-mediated transport."}, "BCRP [4]": {"target": "T1, BCRP", "assay_type": "cell-based", "details": "Mx-RPE cells", "source_text": "as §1\nRat prostate progenitor (stem cell-like) cell lines (RPE, DP2, DP3, and DP4) were established from regenerating prostates of Fischer-344 rats and were maintained in prostate growth media (Presnell et al., Prostate Cancer Prostatic Dis (1999); 2:257-63) supplemented with 2% fetal bovine serum (FBS; Hyclone, Logan, UT) without androgen supplementation. […] A subpopulation of RPE cells was selected for resistance to mitoxantrone (Mx-RPE) by continuous culture in increasing concentrations of mitoxantrone (0.2-4 μmol/L; Sigma).\nAdditionally, novobiocin and fumitremorgin C were compared in RPE cells as inhibitors of BCRP-mediated efflux of Hoechst 33342, the marker utilized to identify the side population phenotype of stem cells. Fumitremorgin C is a specific inhibitor for BCRP-mediated transport. […] The moderate increase in nuclear Hoechst 33342 dye in RPE cells with inhibited BCRP function reflects a combination of the limited dynamic range of digital imaging technology and the constitutive expression of MDR-1 in the RPE cells (data not shown) because MDR-1 also effectively transports Hoechst 33342 dye; however, novobiocin and fumitremorgin C inhibit only the BCRP-mediated component of Hoechst efflux, not MDR-1 function (Doyle et al., Oncogene (2003); 22:7340-58; Shiozawa et al., Int. J. Cancer (2004); 108:146-51)."}, "[5]": {"details": "cited from earlier work"}, "TRAMP mice": {"system": "TRAMP mice", "experiment": "Foci of SV40Tag+ cells in prostates of castrated TRAMP mice treated with novobiocin", "assay_type": "in vivo, mouse", "details": "novobiocin 25 mg/kg/5 times a week", "source_text": "In this model, the PB-SV40 large T antigen transgene (SV40Tag) is expressed specifically in the epithelial cells of the murine prostate. Cells expressing the SV40Tag transgene can be detected by immunohistological methods using labeled monoclonal antibodies to SV40Tag. Adenocarcinoma of the prostate in TRAMP mice arises as early as eight weeks of age and is characterized by tumor cells that uniformly express high levels of AR and that regress upon castration. In contrast, poorly differentiated neuroendocrine-like carcinomas in TRAMP mice are characterized by expression of the neuroendocrine marker synaptophysin, and an absence, or weak and heterogeneous expression of AR. Neuroendocrine-like carcinomas are rare in young TRAMP mice, but arise rapidly in mice that are castrated between 12 and 14 weeks of age (Kaplan-Lefko et al., Prostate (2003); 55:219-37; Johnson et al., Prostate (2005); 62:322-38).\nTreatment of the TRAMP mice with novobiocin (25 mg/kg/5 times a week), or saline (physiologic saline/5 times a week), was initiated at 13 weeks of age and all mice were castrated at 14 weeks of age (1 week following initiation of treatment). TRAMP mice were treated until 19 weeks of age, at which time the prostates, lymph nodes, small intestine, and liver were harvested and processed for analysis using standard techniques. […]"}, "DP3 cell line": {"system": "DP3 cell line", "experiment": "Intracellular [3H]dihydrotestosterone accumulation in BCRP-lacking DP3 control cell line", "assay_type": "cell-based, rat", "details": "DP3 cell line (lacks BCRP)", "source_text": "as §2"}, "[6]": {"system": "AR protein in RPE cells (BCRP function)", "experiment": "Immunoblot analysis of AR protein in RPE cell lysates", "assay_type": "cell-based, rat", "details": "50 μmol/L novobiocin and/or 3 nmol/L dihydrotestosterone; normalized to actin"}}, "note": "Like-named read-outs stand apart in the source and are kept apart here.", "data": [{"smiles": "C[C@]12CCC(=O)C[C@@H]1CC[C@@H]1[C@@H]2CC[C@]2(C)[C@@H](O)CC[C@@H]12", "note": "[dihydrotestosterone]", "values": [{"measurement": "increase in the level of nuclear-localized AR in RPE cells", "setting": "[1]", "value": 2.8, "unit": "fold"}]}, {"smiles": "COc1ccc2c3c([nH]c2c1)[C@H](C=C(C)C)N1C(=O)[C@@H]2CCCN2C(=O)[C@@H]1C3", "note": "[fumitremorgin C]", "values": [{"measurement": "neurotoxicity", "setting": "[2]", "value": "extremely neurotoxic"}, {"measurement": "increase in nuclear Hoechst 33342 compared with the DMSO control", "setting": "BCRP [3]; 10 μmol/L fumitremorgin C", "value": 2.3, "unit": "fold"}, {"measurement": "increase in intracellular levels of [3H]dihydrotestosterone", "setting": "BCRP [4]; 10 μmol/L fumitremorgin C", "value": 3.3, "unit": "fold"}]}, {"smiles": "CO[C@@H]1[C@@H](OC(N)=O)[C@@H](O)[C@H](Oc2ccc3c(O)c(NC(=O)c4ccc(O)c(CC=C(C)C)c4)c(=O)oc3c2C)OC1(C)C", "note": "[novobiocin]", "values": [{"measurement": "toxicity in humans", "setting": "[5]", "value": "well tolerated toxicity in humans"}, {"measurement": "establishment of recurrent growth in TRAMP", "setting": "TRAMP mice", "value": "inhibited establishment of recurrent growth"}, {"measurement": "#Foci/Animal, pattern: >10 cells Differentiated", "setting": "TRAMP mice; 13 to 19 weeks of age", "value": "significant increase"}, {"measurement": "increase in retention of Hoechst 33342", "setting": "BCRP [3]; 5 mmol/L novobiocin", "value": 1.2, "unit": "fold"}, {"measurement": "increase in retention of Hoechst 33342", "setting": "BCRP [3]; 10 mmol/L novobiocin", "value": 1.45, "unit": "fold"}, {"measurement": "increase in intracellular levels of [3H]dihydrotestosterone", "setting": "BCRP [4]; 5 mmol/L novobiocin", "value": 2.4, "unit": "fold"}, {"measurement": "increase in intracellular levels of [3H]dihydrotestosterone", "setting": "BCRP [4]; 10 mmol/L novobiocin", "value": 5.5, "unit": "fold"}, {"measurement": "increase in the level of nuclear-localized AR in RPE cells", "setting": "[1]", "value": 2.4, "unit": "fold"}, {"measurement": "effect on the level of accumulation of intracellular [3H]dihydrotestosterone", "setting": "DP3 cell line", "value": "no effect"}, {"measurement": "increase of AR protein in RPE cells (immunoblot)", "setting": "[6]", "value": 7, "unit": "fold"}]}]}
